Where a name gives a salt, the structure may show the parent alone.
Test: Transdermal absorbability evaluation test using Franz-cells (rat skin permeation)
Settings: indomethacin; cumulative amount permeated 6 hours after start of test; rat skin, Franz-cells

**Q.** With `COc1ccc2c(c1)c(CC(=O)O)c(C)n2C(=O)c1ccc(Cl)cc1` [Indomethacin, reference compound] as the compound, how does the Transdermal absorbability read?
**A.** The Transdermal absorbability was “approximately 3 μg/cm^2”.

Same assay, conditions: tramadol salt liquid preparation free from ionic liquid; percentage of amount added onto the rat skin

**Q.** For `CCCCC(CC)C(=O)O.COc1cccc(C2(O)CCCCC2CN(C)C)c1` (centres unmarked) [2-ethylhexanoate, 2-ethylhexanoate of Tramadol], which “Rat skin permeability after 6 hours” value is on record?
**A.** Its value is 12.1%.

**Q.** For `COc1cccc(C2(O)CCCCC2CN(C)C)c1` (centres unmarked) [Hydrochloride, tramadol hydrochloride, reference compound], which “Rat skin permeability after 6 hours” value is on record?
**A.** The value was 4.5%.

**Q.** Which “Rat skin permeability after 6 hours” value does the source give for Butyrate here?
**A.** The value was 23.8%.

**Q.** For Lactate, which “Rat skin permeability after 6 hours” value is on record?
**A.** The value was 0.2%.

Test: not given
Settings: carboxylic acids and organic amine compounds used for the ionic liquids; cited from earlier work

**Q.** Which pKa does the source give for `CC(C)CCCCCCCCCCCCCCC(=O)O` [Isostearic acid] here?
**A.** Its pKa is “(pKa ≈ 4.9)”.

**Q.** For `CCCCCCCCCCCC(=O)O` [Lauric acid], which pKa is on record?
**A.** Its pKa is “(pKa ≈ 4.9)”.

Same assay, conditions: cited from earlier work

**Q.** For `NC1CCCCC1` [Cyclohexylamine], which pKa is on record?
**A.** The pKa was 10.63.

**Q.** For `CCc1ccc(C(=O)C(C)CN2CCCCC2)cc1` (centres unmarked) [Eperisone, reference compound], which pKa is on record?
**A.** Its pKa is 8.91.

**Q.** Which pKa does the source give for `CCc1cccc2c3c([nH]c12)C(CC)(CC(=O)O)OCC3` (centres unmarked) [Etodolac, reference compound] here?
**A.** Its pKa is 4.5.

**Q.** With `CC(C(=O)O)c1ccc(-c2ccccc2)c(F)c1` (centres unmarked) [Flurbiprofen, reference compound] as the compound, how does the pKa read?
**A.** The pKa was 3.78.

**Q.** For `CC(C)CCCCCCCCCCCCCCC(=O)O` [Isostearic acid], which pKa is on record?
**A.** The pKa was “approximately 4.9”.

**Q.** For `CC(=O)CCC(=O)O` [Levulinic acid], which pKa is on record?
**A.** The pKa was 4.5.

**Q.** With `CC(C(=O)O)c1ccc(CC2CCCC2=O)cc1` (centres unmarked) [Loxoprofen, reference compound] as the compound, how does the pKa read?
**A.** The pKa was 4.20.

**Q.** For `CCCCCCCCCCCCCC(=O)O` [Myristic acid], which pKa is on record?
**A.** The pKa was “ca.4.9”.

**Q.** With `OCCN1CCCC1` [N-hydroxyethyl-pyrrolidine, N-hydroxyethylpyrrolidine] as the compound, how does the pKa read?
**A.** The pKa was 10.32.

**Q.** Which pKa does the source give for `CCCCCCN` [n-Hexylamine] here?
**A.** The pKa was 10.85.

**Q.** Which pKa does the source give for `CCCCCCCC/C=C\CCCCCCCC(=O)O` [oleic acid] here?
**A.** Its pKa is “approximately 4.9”.

Test: pKa of acidic and basic substances present in the compositions
Type: physicochemical
Settings: assumed to be equal to that of an analogue (footnote *1)

**Q.** Which pKa does the source give for `Cc1ccc(C(=O)C(C)CN2CCCCC2)cc1` (centres unmarked) [Tolperisone, reference compound] here?
**A.** Its pKa is about 8.9.

**Q.** With `CCCCCCCCN` [n-Octylamine] as the compound, how does the pKa read?
**A.** Its pKa is 10.7.

— patent publication US8623387B2, “External preparation composition comprising fatty acid-based ionic liquid as active ingredient” (Medrx Co., Ltd., priority 2007, dated 2014)
